Legend:
Format in all cases: in vivo
soybean (Glycine max) = assay: Test A1 preemergence, soybean
Method in brief: (§1)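 Seeds were first planted into a blend of loam soil and sand and given a preemergence directed soil spray. In parallel, pots of the same soil were sown for postemergence application once plants reached 2 to 10 cm and the one- to two-leaf stage. Both used surfactant-containing non-phytotoxic solvent formulations.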

[1] = tested on: wheat (Triticum aestivum); assay: Test A1 preemergence, wheat
Method in brief: as §1

[2] = tested on: wheat (Triticum aestivum); assay: Test A1 postemergence, wheat; details: for Wheat plant response rating: postemergence; for Plant response rating, Wheat: Postemergence
Method in brief: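 Plants grown in pots of loam/sand mix; preemergence = soil-directed spray on seeded pots, postemergence = spray at 1–2 leaves, height 2–10 cm; test chemicals formulated in non-phytotoxic solvent with surfactant.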

corn (Zea mays) = assay: Test A1 postemergence, corn; details: for Plant response rating, Corn: Postemergence; for Corn plant response rating: postemergence
Method in brief: as §1

[3] = 31 g ai/ha, 0 to 100 scale (0 no effect, 100 complete control)
[4] = 125 g ai/ha, 0 to 100 scale, 0 no effect, 100 complete control
[5] = 31 g ai/ha, 0 to 100 scale (0 no effect, 100 complete control), 10 days
[6] = 125 g ai/ha, 0 to 100 scale (0 no effect, 100 complete control), 10 days
[7] = 500 g ai/ha, 0 to 100 scale (0 no effect, 100 complete control)

SMILES	Plant response rating, Soybean (soybean (Glycine max); [3])	Plant response rating, Soybean (soybean (Glycine max); [4])	Plant response rating, Wheat [1, 3]	Plant response rating, Wheat [1, 4]	Wheat plant response rating [2, 3]	Plant response rating, Wheat ([2]; 125 g ai/ha, 0 to 100 scale)	Plant response rating, Corn (corn (Zea mays); [5])	Plant response rating, Corn (corn (Zea mays); 125 g ai/ha, 0 to 100 scale)	Plant response rating, Wheat [2, 5]	Plant response rating, Wheat [2, 6]	Corn plant response rating (corn (Zea mays); [3])	Plant response rating, Corn (corn (Zea mays); [6])	Plant response rating, Soybean (soybean (Glycine max); [7])	Plant response rating, Wheat [1, 7]	Plant response rating, Wheat ([2]; 500 g ai/ha, 0 to 100 scale)	Plant response rating, Corn (corn (Zea mays); 500 g ai/ha, 0 to 100 scale)
Cc1c(C(=O)N2C[C@@H](C)O[C@H](C)C2)cc(N(COC(=O)C(C)(C)C)S(=O)(=O)C(F)(F)F)c(C)c1C (relative stereo) [Compound 373]	0	10	0	20	0	70	0	40								
CCOC(=O)N(c1cc(C(=O)N2C[C@@H](C)O[C@H](C)C2)c(C)c(C)c1C)S(=O)(=O)C(F)(F)F (relative stereo) [Compound 374]	0	70	0	30	20	50	60	70								
Cc1c(C(=O)N2CCSCC2)cc(N(COC(=O)C(C)(C)C)S(=O)(=O)C(F)(F)F)c(C)c1C [Compound 285]	0	0	0	20		20	0	0	10							
CCOC(=O)N(c1cc(C(=O)N2CCSCC2)c(C)c(C)c1C)S(=O)(=O)C(F)(F)F [Compound 286]	0	40	0	30		20	0	0	0							
C#CCN(C)C(=O)c1cc(NS(=O)(=O)C(F)(F)F)c(C)c(C)c1C [Compound 368]	90	100	20	100	20	60	40	90								
Cc1c(C(=O)N2CCC(C)CC2)cc(N(COC(=O)C(C)(C)C)S(=O)(=O)C(F)(F)F)c(C)c1C [Compound 369]	0	30	0	0	0	20	0	50								
C#CCN(C)C(=O)c1cc(N(COC(=O)C(C)(C)C)S(=O)(=O)C(F)(F)F)c(C)c(C)c1C [Compound 371]	0	60	0	10	0	60	60	90								
Cc1cc(C)c(C2=NOC3OCCCC23)cc1NS(=O)(=O)C(F)(F)F (stereo not shown) [Compound 372]	0	50	10	30	10	70	20	50								
Cc1ccc(C2=NOC3CCCC23)cc1NS(=O)(=O)C(F)(F)F (stereo not shown) [Compound 377]	0	0	0	20	0	20	0	0								
CCc1cc(C)c(N(COC(=O)C(C)(C)C)S(=O)(=O)C(F)(F)F)cc1C1=NOC2CCCC12 (stereo not shown) [Compound 378]	0	0	10	20	30	60	0	30								
Cc1cc(C)c(C2=NOC(C(C)C)C2)cc1NS(=O)(=O)C(F)(F)F (stereo not shown) [Compound 381]	0	50	40	90	20					70	0	20				
Cc1c(C2=NOC3(CCCC3)C2)cc(N(COC(=O)C(C)(C)C)S(=O)(=O)C(F)(F)F)c(C)c1C [Compound 382]	0	0	20	20	0					60	0	0				
Cc1cc(C)c(N(COC(=O)C(C)(C)C)S(=O)(=O)C(F)(F)F)cc1C1=NOC(C(C)C)C1 (stereo not shown) [Compound 383]	0	0	20	20	0					70	0	0				
Cc1cc(C)c(N2CC3(CCCCC3)CC2=O)cc1NS(=O)(=O)C(F)(F)F [Compound 392]	0	0	0	50	0					30	0	0				
Cc1cc(Cl)c(NS(=O)(=O)C(F)(F)F)cc1N1CCC2(CCCCC2)C1=O [Compound 393]	60	80	40	60	30					60	0	30				
Cc1cc(Cl)c(NS(=O)(=O)C(F)(F)F)cc1N1CC2(CCCCC2)OC1=O [Compound 394]	50	60	30	70	10					40	0	40				
Cc1cc(C)c(N(COC(=O)C(C)(C)C)S(=O)(=O)C(F)(F)F)cc1N1CCC2(CCC(F)(F)CC2)C1=O [Compound 397]		40		20						60		10	80	100	70	10
COC1CCC2(CC1)CCN(c1cc(NS(=O)(=O)C(F)(F)F)c(C)cc1C)C2=O (stereo not shown) [Compound 398]	70	90	20	90	60					70	30	60				
Cc1cc(C)c(N2CCC3(CCC(C(F)(F)F)CC3)C2=O)cc1NS(=O)(=O)C(F)(F)F (stereo not shown) [Compound 400]	50	50	10	80	30					30	0	0				
Cc1cc(C)c(N(COC(=O)C(C)(C)C)S(=O)(=O)C(F)(F)F)cc1N1CCC2(CCC(C)CC2)C1=O (stereo not shown) [Compound 401]	0	0	0	0	0					10	10	60				
